Measured values from PMC10989899, “MomL inhibits bacterial antibiotic resistance through the starvation stringent response pathway” (mLife, 2022).

Key:
LasR = molecular target: T1, LasR (Pseudomonas aeruginosa, UniProt P25084); test: EMSA, LasR binding to relA promoter DNA; assay type: biochemical; settings: AHL required for DNA binding; the AHL added in EMSA is not named, 3-O-C12-HSL is that of LasR expression; 37 °C
T1 construct: recombinant, pET28a, E. coli BL21(DE3), Ni-NTA

[1] = system: RpoS (Pseudomonas aeruginosa PAO1); test: SPR; settings: binding buffer not stated, SPR: PBS, temperature not stated

T1 sequence (P25084 whole entry): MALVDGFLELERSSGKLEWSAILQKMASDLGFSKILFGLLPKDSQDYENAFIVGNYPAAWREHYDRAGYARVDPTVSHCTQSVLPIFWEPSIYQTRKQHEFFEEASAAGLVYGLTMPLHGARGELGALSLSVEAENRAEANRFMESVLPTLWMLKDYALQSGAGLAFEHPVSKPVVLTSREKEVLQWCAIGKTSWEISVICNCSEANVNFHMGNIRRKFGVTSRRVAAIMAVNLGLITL

| Compound | EMSA, LasR binding to relA promoter DNA (LasR) | Kd [1] |
| --- | --- | --- |
| CCCCCCCCCC(=O)CC(=O)N[C@H]1CCOC1=O [3-O-C12-HSL] | This binding depended on the presence of AHLs. |  |
| H2-T6SS promoter DNA (SPR) |  | 87.6 nM |
